Tests used:
Conditions in all cases: in vivo
[1] = Oral bioavailability in rat at 100 mg/kg; type: ADME, organism-based
[2] = Bioavailability in rat at 100 mg/kg, ip; type: ADME, organism-based
[3] = Bioavailability in beagle dog; type: ADME, organism-based, Canis lupus familiaris

| Compound | bioavailability [1] [%] | bioavailability [2] [%] | bioavailability [3] [%] |
| --- | --- | --- | --- |
| C[C@H]1COC2=C1C(=O)C(=O)c1c2ccc2c1CCCC2(C)C [CRYPTOTANSHINONE] | 2.1 | 10.6 | – |
| O=C(/C=C/c1ccc(O)c(O)c1/C=C/c1ccc(O)c(O)c1)O[C@H](Cc1ccc(O)c(O)c1)C(=O)O [SALVIANOLIC ACID A] | – | – | 1.47 |

Source: ChEMBL document CHEMBL3112555, “Danshen diversity defeating dementia” (Bioorg Med Chem Lett, 2014)
